This passage reports activity and Percent fungal survival results from article PMC8815882, “Screening the pandemic response box identified benzimidazole carbamates, Olorofim and ravuconazole as promising drug candidates for the treatment of eumycetoma” (PLoS Neglected Tropical Diseases, 2022).

This assay relates to M. mycetomatis genome strain MM55. The assay is described as follows: CLSI M38-A2 based in vitro susceptibility screening (XTT or resazurin), growth at fixed concentration. The format is cell-based, Madurella mycetomatis. The note with it: Madurella mycetomatis; for Percent fungal survival at 100 µM: read-out: Percentage survival at 100um, 100 uM A (second replicate column).
Setting [1] is: mean of three, M. mycetomatis MM55, read-out: Percentage survival at 25um, 25 uM mean.
Setting [2] is: replicate A, M. mycetomatis MM55, read-out: Percentage survival at 25um, 25 um A.
Where [3] appears, read: replicate B, M. mycetomatis MM55, read-out: Percentage survival at 25um, 25 uM B.
The mark [4] stands for this setting: replicate C, M. mycetomatis MM55, read-out: Percentage survival at 25um, 25 uM C.
Where [5] appears, read: mean of three, M. mycetomatis MM55, read-out: Percentage survival at 100um, 100 uM mean.
Setting [6] is: replicate 1, M. mycetomatis MM55, read-out: Percentage survival at 100um, 100 uM A (first replicate column).
Where [7] appears, read: replicate 2, M. mycetomatis MM55.
The mark [8] stands for this setting: replicate 3, M. mycetomatis MM55, read-out: Percentage survival at 100um, 100 uM A (third replicate column).
Setting [9] is: mean of three replicates, read-out: Percentage survival at 25um, 25 uM mean.
[10] abbreviates: replicate A, read-out: Percentage survival at 25um, 25 um A.
Setting [11] is: replicate B, read-out: Percentage survival at 25um, 25 uM B.
The mark [12] stands for this setting: replicate C, read-out: Percentage survival at 25um, 25 uM C.
[13] abbreviates: first replicate column, read-out: Percentage survival at 100um, 100 uM A.
Where [14] appears, read: mean of three replicates, read-out: Percentage survival at 100um, 100 uM mean.
The mark [15] stands for this setting: second replicate column, read-out: Percentage survival at 100um, 100 uM A.
Setting [16] is: third replicate column, read-out: Percentage survival at 100um, 100 uM A.
[17] abbreviates: replicate 1, read-out: Percentage survival at 100um, 100 uM A (first replicate column).
[18] abbreviates: replicate 3, read-out: Percentage survival at 100um, 100 uM A (third replicate column).
[19] abbreviates: mean of replicates, MM55, read-out: Percentage survival at 25um, 25 uM mean.
[20] abbreviates: replicate A, MM55, read-out: Percentage survival at 25um, 25 um A.
The mark [21] stands for this setting: replicate B, MM55, read-out: Percentage survival at 25um, 25 uM B.
Setting [22] is: replicate C, MM55, read-out: Percentage survival at 25um, 25 uM C.
Where [23] appears, read: mean of replicates, MM55, read-out: Percentage survival at 100um, 100 uM mean.
The mark [24] stands for this setting: replicate 1, MM55, read-out: Percentage survival at 100um, 100 uM A.
[25] abbreviates: replicate 2, MM55, read-out: Percentage survival at 100um, 100 uM A.
Setting [26] is: replicate 3, MM55, read-out: Percentage survival at 100um, 100 uM A.
The mark [27] stands for this setting: mean of replicates, read-out: Percentage survival at 25um, 25 uM mean.
Setting [28] is: mean of replicates, read-out: Percentage survival at 100um, 100 uM mean.
[29] abbreviates: replicate 1, read-out: Percentage survival at 100um, 100 uM A.
Where [30] appears, read: replicate 2, read-out: Percentage survival at 100um, 100 uM A.
The mark [31] stands for this setting: replicate 3, read-out: Percentage survival at 100um, 100 uM A.

Molecules are shown by their SMILES. Like-named read-outs stand apart in the source and are kept apart here.

For the compound `CC[C@H]1OC(=O)[C@H](C)[C@@H](O[C@H]2C[C@@](C)(OC)[C@@H](O)[C@H](C)O2)[C@H](C)[C@@H](O[C@@H]2O[C@H](C)C[C@H](N(C)C)[C@H]2O)[C@](C)(O)C[C@@H](C)C(=O)[C@H](C)[C@@H](O)[C@]1(C)O` [MMV003137], the activity at 25 µM is 82.5% under setting [1], 94.8% under setting [2], 79.1% under setting [3] and 73.6% under setting [4]. The activity at 100 µM was 79.9% under setting [5], 78.2% under setting [6] and 87.7% under setting [8]. The Percent fungal survival at 100 µM under setting [7] turned out to be 73.7%.

As to `C[C@@]1(O)[C@H](O)[C@@H](CO)O[C@H]1n1ccc2c(N)ncnc21` [MMV1593519], the activity at 25 µM amounted to 94.2% under setting [9], 94.4% under setting [10], 105% under setting [11] and 83.4% under setting [12]. The activity at 100 µM runs as follows: under setting [13], 80.2%; under setting [14], 86.2%; under setting [15], 92.3%; under setting [16], 86.2%.

`NC(=O)c1cnccn1` [MMV003249]: the activity at 25 µM was 83.1% under setting [9], 89.2% under setting [10], 75.7% under setting [11] and 84.4% under setting [12]. Further, the activity at 100 µM is, setting by setting: under setting [14], 60%; under setting [17], 53.7%; under setting [18], 56.3%. The Percent fungal survival at 100 µM (replicate 2) came out at 70%.

As for `Cc1oncc1C(=O)Nc1ccc(C(F)(F)F)cc1` [MMV003291], the activity at 25 µM by setting is: under setting [9], 85.3%; under setting [10], 82.1%; under setting [11], 92.4%; under setting [12], 81.5%. For the same compound, the activity at 100 µM was 55.9% under setting [13], 62.5% under setting [14], 52.4% under setting [15] and 79% under setting [16].

`CN1CCN(c2ccc3[nH]c(-c4ccc5[nH]c(-c6ccc(O)cc6)nc5c4)nc3c2)CC1` [MMV020752]: the activity at 25 µM worked out at 67.2% under setting [1], 67.7% under setting [2], 71.6% under setting [3] and 62.2% under setting [4]. Besides, the activity at 100 µM under setting [5] was found to be 24.3%, the activity at 100 µM under setting [6] is 53.4% and the activity at 100 µM under setting [8] amounted to 4.7%. For the same compound, under setting [7], the Percent fungal survival at 100 µM came out at 14.6%.

In the case of `Nc1nc2c(ncn2[C@@H]2O[C@H](CO)[C@@H](O)[C@H]2F)c(=O)[nH]1` [MMV1633677], the activity at 25 µM is, setting by setting: under setting [9], 85.2%; under setting [10], 76.3%; under setting [11], 91.2%; under setting [12], 88.1%. The activity at 100 µM under setting [13] was 85.8%, the activity at 100 µM under setting [14] amounted to 83.6%, the activity at 100 µM under setting [15] was found to be 80.2% and the activity at 100 µM under setting [16] amounted to 84.7%.

Take `COc1ccc(CNC(=O)C2CCN([C@H](C)c3cccc4ccccc34)CC2)cc1` [MMV1634397]: the activity at 25 µM runs as follows: under setting [19], 45.7%; under setting [20], 62.4%; under setting [21], 66.9%; under setting [22], 7.76%. The activity at 100 µM was 4.13% under setting [23], 3.82% under setting [24], -0.868% under setting [25] and 9.43% under setting [26].

With `COCCn1cnc2c(=O)[nH]c(Nc3ccccc3)nc21` [MMV1782103], the activity at 25 µM is 86.8% under setting [19], 90% under setting [20], 97.7% under setting [21] and 72.6% under setting [22]. Moreover, the activity at 100 µM under setting [23] was 75.1%, the activity at 100 µM under setting [24] came out at 87.4%, the activity at 100 µM under setting [25] was 60.4% and the activity at 100 µM under setting [26] amounted to 77.5%.

On to `CC1CN(c2ncnc3c2c(-c2ccccc2)cn3-c2ccc(F)cc2)CC(C)O1` (centres unmarked) [MMV093250], for which the activity at 25 µM is 63.7% under setting [1], 69.5% under setting [2], 65.3% under setting [3] and 56.2% under setting [4]. Further, the activity at 100 µM is, setting by setting: under setting [5], 70%; under setting [6], 65.7%; under setting [8], 63.6%. In addition, the Percent fungal survival at 100 µM under setting [7] stood at 80.7%.

On to `O=C(Nc1nnc(-c2ccc(Cl)cc2)o1)c1nc2ccccc2s1` [MMV102833], for which the activity at 25 µM came out at 111% under setting [9], 134% under setting [10], 137% under setting [11] and 62.9% under setting [12]. The activity at 100 µM is 73.2% under setting [14], 81.5% under setting [17] and 71.7% under setting [18]. Where the note is “replicate 2”, the Percent fungal survival at 100 µM was 66.4%.

With `Cc1c(CN(C)C(=O)/C=C/c2cnc3c(c2)C(C)(C)C(=O)N3)oc2ccccc12` [MMV1579788], the activity at 25 µM amounted to 75.8% under setting [27], 69.6% under setting [10], 89.2% under setting [11] and 68.5% under setting [12]. For the same compound, the activity at 100 µM under setting [28] came to 90.5%, the activity at 100 µM under setting [29] stood at 57.9%, the activity at 100 µM under setting [30] was determined as 71.3% and the activity at 100 µM under setting [31] worked out at 142%.

For the compound `O=P(O)(O)C(CCCc1cccc(Oc2ccccc2)c1)S(=O)(=O)O` (centres unmarked) [MMV1782215], the activity at 25 µM came out at 69.1% under setting [9], 82.3% under setting [10], 68.2% under setting [11] and 56.8% under setting [12]. The activity at 100 µM runs as follows: under setting [14], 68.9%; under setting [17], 79.5%; under setting [18], 62%. In addition, the Percent fungal survival at 100 µM (replicate 2) came to 65.1%.

Take `CCN1CCN(Cc2nc3ccc([N+](=O)[O-])cc3c(=O)n2-c2ccccc2F)CC1` [MMV275100]: the activity at 25 µM by setting is: under setting [19], 81.2%; under setting [20], 83%; under setting [21], 93.5%; under setting [22], 67.1%. Besides, the activity at 100 µM is, setting by setting: under setting [23], 72.6%; under setting [24], 70.7%; under setting [25], 69.8%; under setting [26], 77.1%.

Consider `COc1c(NC(=O)[C@H]2CC[C@@H](COc3ccc([N+](=O)[O-])cc3)CC2)c(F)cc2c(=O)c(C(=O)O)cn(C3CC3)c12` [MMV1633965], for which the activity at 25 µM is, setting by setting: under setting [27], 83.5%; under setting [10], 86.3%; under setting [11], 88.2%; under setting [12], 76%. In addition, the activity at 100 µM reads like this: under setting [28], 82.8%; under setting [29], 86.1%; under setting [30], 78.7%; under setting [31], 83.4%.

Consider `CCc1nc2ccc(Cl)cn2c1C(=O)NCc1ccc(N2CCC(c3ccc(OC(F)(F)F)cc3)CC2)cc1` [MMV687696], for which the activity at 25 µM by setting is: under setting [9], 93.6%; under setting [10], 95%; under setting [11], 93.8%; under setting [12], 91.9%. Also, the activity at 100 µM is, setting by setting: under setting [14], 84.8%; under setting [17], 87.8%; under setting [18], 80.3%. The Percent fungal survival at 100 µM (replicate 2) was 86.4%.

Consider `O=C(O)C(Cc1c[nH]c2ccccc12)N1C(=O)c2ccccc2C1=O` (centres unmarked) [MMV452821], for which the activity at 25 µM was 80.9% under setting [9], 99.3% under setting [10], 91% under setting [11] and 52.5% under setting [12]. For the same compound, the activity at 100 µM runs as follows: under setting [14], 96.8%; under setting [17], 102%; under setting [18], 92.9%. The Percent fungal survival at 100 µM (replicate 2) was found to be 95.7%.
